This note sets out measurements from patent publication US12410207B2, “Galactoside inhibitor of galectins” (GALECTO BIOTECH AB, priority 2019, dated 2025).

For one assay, the target named is Galectin-3 (Homo sapiens, UniProt P17931). In words: Fluorescence anisotropy assay, inhibition of galectin / fluorescein tagged saccharide probe interaction. The note with it: compound as inhibitor of probe binding. How it is done:
(§1) The affinity of Example 1-45 for galectins were determined by a fluorescence anisotropy assay where the compound was used as an inhibitor of the interaction between galectin and a fluorescein tagged saccharide probe as described Sörme, P., Kahl-Knutsson, B., Huflejt, M., Nilsson, U. J., and Leffler H. (2004) Fluorescence polarization as an analytical tool to evaluate galectin-ligand interactions. Anal. Biochem. 334: 36-47, (Sorme et al., 2004) and Monovalent interactions of Galectin-1 By Salomonsson, Emma; Larumbe, Amaia; Tejler, Johan; Tullberg, Erik; Rydberg, Hanna; Sundin, Anders; Khabut, Areej; Frejd, Torbjorn; Lobsanov, Yuri D.; Rini, James M.; et al, From Biochemistry (2010), 49(44), 9518-9532, (Salomonsson et al., 2010).
(In general: In fluorescence polarisation assays a small probe gives low polarisation when free and higher when bound to something large.)

For the next assay, the target named is Galectin-1 (Homo sapiens, UniProt P09382). The assay is described as above. The note with it: compound as inhibitor of probe binding. How it is done:
as §1

Bounds are passed on as bounds.

Sequence of Galectin-3 (P17931 whole entry, species assumed): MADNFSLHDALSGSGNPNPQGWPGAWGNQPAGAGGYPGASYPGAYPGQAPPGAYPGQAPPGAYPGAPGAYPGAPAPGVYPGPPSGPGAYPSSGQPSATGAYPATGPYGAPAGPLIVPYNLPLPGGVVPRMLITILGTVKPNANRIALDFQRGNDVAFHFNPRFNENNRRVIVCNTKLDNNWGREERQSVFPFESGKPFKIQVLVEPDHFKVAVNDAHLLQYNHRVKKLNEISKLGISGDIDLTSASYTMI
Sequence of Galectin-1 (P09382 whole entry, species assumed): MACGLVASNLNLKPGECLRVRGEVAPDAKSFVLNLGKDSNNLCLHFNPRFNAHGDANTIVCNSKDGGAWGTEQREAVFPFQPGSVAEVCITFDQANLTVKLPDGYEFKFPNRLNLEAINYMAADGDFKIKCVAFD

As usually defined, the Kd is the concentration at which binding is half-saturated. In the case of `OCC1O[C@H](Sc2cc(Cl)cnc2N2CC(CO)(CO)C2)C(O)C(n2cc(-c3cc(F)c(F)c(F)c3)cn2)[C@H]1O` (stereo partly drawn) [Example 37, 5-Chloro-[3,3-bis(hydroxymethyl)azetidin-1-yl]pyridin-3-yl 3-deoxy-3-[4-(3,4,5-trifluorophenyl)-1H-1,2-pyrazol-1-yl]-1-thio-α-D-galactopyranoside], the values for the Kd on Galectin-3 and on Galectin-1 were 0.013 µM and 5.1 µM, respectively.
`C#Cc1cncc(S[C@H]2OC(CO)[C@H](O)C(n3cc(-c4cc(F)c(Cl)c(F)c4)cn3)C2O)c1` (stereo partly drawn) [Example 7, 5-Ethynylpyridin-3-yl 3-[4-(4-chloro-3,5-difluorophenyl)-1H-1,2-pyrazol-1-yl]-3-deoxy-1-thio-α-D-galactopyranoside]: the Kd at Galectin-3 is 0.014 µM; at Galectin-1, 30 µM.
For `OCC1O[C@H](Sc2cncc(Cl)c2)C(O)C(n2cc(-c3cc[nH]n3)cn2)[C@H]1O` (stereo partly drawn) [Example 21, 5-Chloropyridin-3-yl 3-deoxy-3-[4-(1H-1,2-pyrazol-3-yl)-1H-1,2-pyrazol-1-yl]-1-thio-α-D-galactopyranoside], in that order: 12.7 µM and 8.9 µM.
In the same order, the values of `OCC1O[C@H](Sc2cncc(Cl)c2)C(O)C(n2cc(-c3ccc(F)cn3)cn2)[C@H]1O` (stereo partly drawn) [Example 19, 5-Chloropyridin-3-yl 3-deoxy-3-[4-(5-fluoropyridin-2-yl)-1H-1,2-pyrazol-1-yl]-1-thio-α-D-galactopyranoside] are 1.6 µM and 4.1 µM.
As to `OCC1O[C@H](Sc2cncc(Cl)c2)C(O)C(n2cnc(-c3cc(F)c(F)c(F)c3)c2)[C@H]1O` (stereo partly drawn) [Example 36, 5-Chloropyridin-3-yl 3-deoxy-3-[4-(3,4,5-trifluorophenyl)-1H-1,3-imidazol-1-yl]-1-thio-α-D-galactopyranoside], the Kd is 0.067 µM on Galectin-3 and 12.7 µM at Galectin-1.
As for `N#Cc1ncc(Cl)cc1S[C@H]1OC(CO)[C@H](O)C(n2cc(-c3nc(Cl)cs3)cn2)C1O` (stereo partly drawn) [Example 30, 5-Chloro-2-cyanopyridin-3-yl 3-[4-(4-chlorothiazol-2-yl)-1H-1,2-pyrazol-1-yl]-3-deoxy-1-thio-α-D-galactopyranoside], the Kd on Galectin-3 worked out at 1.1 µM; at Galectin-1, 0.51 µM.
For `OCC1O[C@H](Sc2cncc(Cl)c2)C(O)C(n2cc(-c3nc(Cl)cs3)cn2)[C@H]1O` (stereo partly drawn) [Example 27, 5-Chloropyridin-3-yl 3-[4-(4-chlorothiazol-2-yl)-1H-1,2-pyrazol-1-yl]-3-deoxy-1-thio-α-D-galactopyranoside], in that order: 1.5 µM and 0.59 µM.
As for `OC[C@H]1O[C@H](Sc2ccc(Cl)c(Cl)c2)[C@H](O)[C@@H](c2nc(-c3cc(F)c(F)c(F)c3)co2)[C@H]1O` [Example 39, 3,4-Dichlorophenyl 3-deoxy-3-[4-(3,4,5-trifluorophenyl)-oxazol-2-yl]-1-thio-α-D-galactopyranoside], the figures for the Kd at Galectin-3 and at Galectin-1 were 0.3 µM and more than 100 µM, respectively.
Consider `O=C(c1ccc(Cl)cc1S[C@H]1OC(CO)[C@H](O)C(n2cc(-c3cc(F)c(F)c(F)c3)cn2)C1O)N1CCC1` (stereo partly drawn) [Example 10, 2-(N-azetidinyl-carbonyl)-5-chlorophenyl 3-deoxy-3-[4-(3,4,5-trifluorophenyl)-1H-1,2-pyrazol-1-yl]-1-thio-α-D-galactopyranoside], for which the Kd at Galectin-3 came to 0.015 µM; at Galectin-1, 6.8 µM.
In the same order, the values of `Cc1c(F)cc(-c2cnn(C3C(O)[C@@H](Sc4cncc(Cl)c4)OC(CO)[C@@H]3O)c2)cc1F` (stereo partly drawn) [Example 4, 5-Chloropyridin-3-yl 3-deoxy-3-[4-(3,5-difluoro-4-methylphenyl)-1H-1,2-pyrazol-1-yl]-1-thio-α-D-galactopyranoside] are 0.009 µM and 43 µM.
In the same order, the values of `COC1C(n2cc(-c3csc(O)n3)cn2)[C@@H](O)C(CO)O[C@@H]1Sc1ccc(Cl)c(Cl)c1` (stereo partly drawn) [Example 42, 3,4-Dichlorophenyl 3-deoxy-3-[4-(2-hydroxythiazol-4-yl)-1H-1,2-pyrazol-1-yl]-2-O-methyl-1-thio-α-D-galactopyranoside] are 63 µM and 0.18 µM.
For `C#Cc1cnc(C#N)c(S[C@H]2OC(CO)[C@H](O)C(n3cc(-c4cc(F)c(F)c(F)c4)cn3)C2O)c1` (stereo partly drawn) [Example 16, 2-Cyano-5-ethynylpyridin-3-yl 3-deoxy-3-[4-(3,4,5-trifluorophenyl)-1H-1,2-pyrazol-1-yl]-1-thio-α-D-galactopyranoside], in that order: 0.021 µM and 12.7 µM.
In the case of `OCC1O[C@H](Sc2cncc(Cl)c2)C(O)C(n2cc(-c3cccc(F)n3)cn2)[C@H]1O` (stereo partly drawn) [Example 18, 5-Chloropyridin-3-yl 3-deoxy-3-[4-(6-fluoropyridin-2-yl)-1H-1,2-pyrazol-1-yl]-1-thio-α-D-galactopyranoside], the results for the Kd on Galectin-3 and on Galectin-1 were 0.69 µM and 12.3 µM, respectively.
Take `OCC1O[C@H](Sc2cncc(Cl)c2)C(O)C(n2cc(-c3csc(O)n3)cn2)[C@H]1O` (stereo partly drawn) [Example 31, 5-Chloropyridin-3-yl 3-deoxy-3-[4-(2-hydroxythiazol-4-yl)-1H-1,2-pyrazol-1-yl]-1-thio-α-D-galactopyranoside]: the Kd on Galectin-3 came to 3.4 µM; on Galectin-1 it was 0.14 µM.
In the same order, the values of `OCC1O[C@H](Sc2cncc(Cl)c2)C(O)C(n2cc(-c3cc(F)ccn3)cn2)[C@H]1O` (stereo partly drawn) [Example 20, 5-Chloropyridin-3-yl 3-deoxy-3-[4-(4-fluoropyridin-2-yl)-1H-1,2-pyrazol-1-yl]-1-thio-α-D-galactopyranoside] are 0.63 µM and 10.2 µM.
In the same order, the values of `OCC1O[C@H](Sc2cncc(Cl)c2)C(O)C(n2cc(-c3cscn3)cn2)[C@H]1O` (stereo partly drawn) [Example 25, 5-Chloropyridin-3-yl 3-deoxy-3-[4-(thiazol-4-yl)-1H-1,2-pyrazol-1-yl]-1-thio-α-D-galactopyranoside] are 9.6 µM and 1.3 µM.
Consider `N#Cc1ccc(Cl)cc1S[C@H]1OC(CO)[C@H](O)C(n2cc(-c3nc(Cl)cs3)cn2)C1O` (stereo partly drawn) [Example 29, 5-Chloro-2-cyanophenyl 3-[4-(4-chlorothiazol-2-yl)-1H-1,2-pyrazol-1-yl]-3-deoxy-1-thio-α-D-galactopyranoside], for which the Kd was found to be 1.5 µM on Galectin-3 and 0.49 µM on Galectin-1.
As to `COC1C(n2cc(-c3cc(F)c(Cl)c(F)c3)cn2)[C@@H](O)C(CO)O[C@@H]1Sc1cc(Cl)ccc1C#N` (stereo partly drawn) [Example 44, 5-Chloro-2-cyanophenyl 3-[4-(4-chloro-3,5-difluorophenyl)-1H-1,2-pyrazol-1-yl]-3-deoxy-2-O-methyl-1-thio-α-D-galactopyranoside], the Kd on Galectin-3 turned out to be 0.04 µM; at Galectin-1, 50 µM.
For `COC1C(n2cc(-c3csc(N)n3)cn2)[C@@H](O)C(CO)O[C@@H]1Sc1ccc(Cl)c(Cl)c1` (stereo partly drawn) [Example 43, 3,4-Dichlorophenyl 3-[4-(2-aminothiazol-4-yl)-1H-1,2-pyrazol-1-yl]-3-deoxy-2-O-methyl-1-thio-α-D-galactopyranoside], in that order: 11 µM and 2.1 µM.
For `Cn1ccc(-c2cnn(C3C(O)[C@@H](Sc4cncc(Cl)c4)OC(CO)[C@@H]3O)c2)n1` (stereo partly drawn) [Example 22, 5-Chloropyridin-3-yl 3-deoxy-3-[4-(1-methyl-1,2-pyrazol-3-yl)-1H-1,2-pyrazol-1-yl]-1-thio-α-D-galactopyranoside], in that order: 9.6 µM and 14.7 µM.
`Cc1cnc(C#N)c(S[C@H]2OC(CO)[C@H](O)C(n3cc(-c4cc(F)c(F)c(F)c4)cn3)C2O)c1` (stereo partly drawn) [Example 14]: the Kd at Galectin-3 was found to be 0.08 µM; on Galectin-1 it was 51 µM.
In the same order, the values of `OCC1O[C@H](Sc2cncc(Cl)c2)C(O)C(n2cc(-c3ncco3)cn2)[C@H]1O` (stereo partly drawn) [Example 24, 5-Chloropyridin-3-yl 3-deoxy-3-[4-(oxazol-2-yl)-1H-1,2-pyrazol-1-yl]-1-thio-α-D-galactopyranoside] are 10.3 µM and 6.1 µM.
With `OCC1O[C@H](Sc2cncc(Br)c2)C(O)C(n2cc(-c3cc(F)c(F)c(F)c3)cn2)[C@H]1O` (stereo partly drawn) [Example 5, 5-Bromopyridin-3-yl 3-deoxy-3-[4-(3,4,5-trifluorophenyl)-1H-1,2-pyrazol-1-yl]-1-thio-α-D-galactopyranoside], the Kd on Galectin-3 was 0.025 µM; on Galectin-1, 14.8 µM.
For `N#Cc1ccc(Cl)cc1S[C@H]1OC(CO)[C@H](O)C(n2cc(-c3cc(F)c(Cl)c(F)c3)cn2)C1O` (stereo partly drawn) [Example 8, 5-Chloro-2-cyanophenyl 3-[4-(4-chloro-3,5-difluorophenyl)-1H-1,2-pyrazol-1-yl]-3-deoxy-1-thio-α-D-galactopyranoside], the Kd worked out at 0.02 µM on Galectin-3 and 48 µM at Galectin-1.
As to `OCC1O[C@H](Sc2cncc(Cl)c2)C(O)C(n2cc(-c3ncc[nH]3)cn2)[C@H]1O` (stereo partly drawn) [Example 23, 5-Chloropyridin-3-yl 3-deoxy-3-[4-(1H-imidazol-2-yl)-1H-1,2-pyrazol-1-yl]-1-thio-α-D-galactopyranoside], the Kd was determined as 9 µM at Galectin-3 and 3.4 µM on Galectin-1.
Turning to `OC[C@H]1O[C@H](Sc2ccc(Cl)c(Cl)c2)[C@H](O)[C@@H](c2nc(-c3cc(F)c(F)c(F)c3)cs2)[C@H]1O` [Example 40, 3,4-Dichlorophenyl 3-deoxy-3-[4-(3,4,5-trifluorophenyl)-thiazol-2-yl]-1-thio-α-D-galactopyranoside], the figures for the Kd on Galectin-3 and on Galectin-1 were 2 µM and more than 100 µM, respectively.
`COC1C(n2ccc(-c3cc(F)c(F)c(F)c3)n2)[C@@H](O)C(CO)O[C@@H]1Sc1cncc(Cl)c1` (stereo partly drawn) [Example 38, 5-Chloropyridin-3-yl 3-deoxy-3-[3-(3,4,5-trifluorophenyl)-1H-1,2-pyrazol-1-yl]-2-O-methyl-1-thio-α-D-galactopyranoside]: the Kd at Galectin-3 came to 0.45 µM; on Galectin-1, 51 µM.
